No end group written: not given here.
Experiments:
[1] = tested on: allergen specific T cells; assay: T cell proliferation assay (72 h) with allergen-specific T cell lines from house dust mite allergic donors; % responders; type: cell-based, human; conditions: FIGS. 9b, 9c; subset of 22 donors having about 88% worldwide HLA Class II coverage
Procedure: This example includes a description of how peptides (singly or in combination) were screened for T cell reactivity in the donor population.
The T cell reactivity to peptides disclosed herein was determined either by measuring T cell proliferation of T cell lines specific to the allergens investigated or by measuring the cytokine production of allergen-specific T cells obtained from cultured PBMCs.
TCL specific to the six allergens rproDer p 1, rproDer f 1, rDer p 2, rDer f 2, Der p 4 and Der p 7, respectively or specific to the combination of all six allergens were established from peripheral blood mononuclear cells (PBMCs) of each donor.
PBMCs were isolated from freshly drawn heparinized blood by gradient centrifugation on lymphoprep (Nycomed, Norway), washed twice and re-suspended in RPMI 1640 medium with HEPES and ultraglutamine (Cambrex, Belgium) supplemented with 5% v/v AB-serum (Cambrex, Belgium), 100 units/ml penicillin, and 0.1 mg/ml streptomycin (Sigma, St Louis, USA) (referred to as AB-medium). Isolated PBMCs were CD8 depleted by Macs magnetic depletion according to the manufacturer's instructions (Miltenyi Biotec, Bergisch Gladbach, Germany). […]
The capacity of the different peptides to stimulate allergen specific T cells is analyzed in a standard 72 h T cell proliferation assay, as described in Henmar H et al., Clin Exp Immunol 2008; […]):316-23. […]

[2] = target: DPA10201-DPB11401; assay: Competitive MHC class II binding assay, DPA10201-DPB11401; conditions: read-out: HLA-DPA10201-DPB11401; positive binding at cutoff 1000 nM
[3] = target: DRB1_0301 (Homo sapiens, UniProt P01903+P01911, A100K/A102G/A103R/A169T/F55Y/I96L/K41T/L162R/M171V/P40S/Q125H/Q178H/Q39Y/R42S/S66N/T106N/T262R/W38E/Y61H); assay: Competitive MHC class II binding assay, DRB1_0301
[4] = target: T1, DPA10103-DPB10401 (Homo sapiens, UniProt P04440+P20036); assay: Competitive MHC class II binding assay, DPA10103-DPB10401
T1 sequence (P20036 29-260): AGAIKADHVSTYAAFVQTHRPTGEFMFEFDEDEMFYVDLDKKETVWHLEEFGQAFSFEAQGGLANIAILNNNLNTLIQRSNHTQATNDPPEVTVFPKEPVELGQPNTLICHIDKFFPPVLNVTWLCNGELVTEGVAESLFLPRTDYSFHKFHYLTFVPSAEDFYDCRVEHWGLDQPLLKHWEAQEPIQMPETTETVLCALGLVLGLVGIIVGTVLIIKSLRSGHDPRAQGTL
T1 sequence (P04440 30-258): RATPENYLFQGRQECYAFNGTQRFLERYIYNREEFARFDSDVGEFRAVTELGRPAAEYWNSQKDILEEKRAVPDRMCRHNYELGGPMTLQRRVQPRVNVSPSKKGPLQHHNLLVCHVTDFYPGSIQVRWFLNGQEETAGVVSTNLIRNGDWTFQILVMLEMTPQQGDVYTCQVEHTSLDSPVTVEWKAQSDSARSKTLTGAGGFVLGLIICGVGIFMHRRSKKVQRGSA

[5] = target: DRB1_1201 (Homo sapiens, UniProt P01903+P01911, A100R/A169T/D57E/D86V/F55L/H45Y/K41T/L162R/M171V/P40S/Q125H/Q178H/Q39Y/Q99D/R42G/S66L/T262R/V114A/V67L/W38E/Y59H/Y61H/Y89S); assay: Competitive MHC class II binding assay, DRB1_1201
[6] = target: DRB1_1101 (Homo sapiens, UniProt P01903+P01911, A100R/A169T/A87E/I96F/K41T/L162R/M171V/P40S/Q125H/Q178H/Q39Y/Q99D/R42S/S66Y/T262R/V115G/W38E); assay: Competitive MHC class II binding assay, DRB1_1101

LVGDNGVLASAIATHAKIRD [pep-110]
fraction of donors with T cell response (% donor response) [1]: higher percentage donor response than the other peptides | IC50 [2]: < 1 µM | IC50 [3]: < 1 µM

DNGYGYFAANIDLMMIEE [pep-010]
IC50 [4]: < 1 µM

CC[C@H](C)[C@H](NC(=O)CNC(=O)[C@@H](NC(=O)[C@@H](NC(=O)[C@@H](NC(=O)[C@H](C)NC(=O)[C@@H](NC(=O)[C@H](C)NC(=O)[C@H](CO)NC(=O)[C@H](Cc1c[nH]cn1)NC(=O)[C@@H](NC(=O)[C@H](CCC(N)=O)NC(=O)[C@H](C)NC(=O)[C@H](CC(C)C)NC(=O)[C@H](C)NC(=O)[C@H](CCC(=O)O)NC(=O)[C@@H](N)CCCNC(=N)N)[C@@H](C)O)[C@@H](C)CC)C(C)C)[C@@H](C)CC)[C@@H](C)CC)C(=O)N[C@@H](CCCCN)C(=O)N[C@@H](CC(=O)O)C(=O)N[C@@H](CC(C)C)C(=O)N[C@@H](CC(=O)O)C(=O)N[C@@H](C)C(=O)O [pep-130]
IC50 [5]: < 1 µM

HAVNIVGYSNAQGVDYWIVR [pep-058]
IC50 [6]: < 1 µM

GSGSSWAFSGVAATESAYLA [pep-044]
IC50 [6]: < 1 µM

LVKGQQYDIKYTWNVPKIAPK [pep-131]
fraction of donors with T cell response (% donor response) [1]: higher percentage donor response than the other peptides
